# Experimental data as given in patent publication US20010044463A1, “Methods for controlling gram negative bacteria in mammals” (priority 1997, published 2001).
# Key:
# [1] = tested on: H. pylori ATCC 43504; assay: Minimum Inhibitory Concentration (MIC) blood agar plate growth inhibition; format: cell-based, Helicobacter pylori
# Protocol: Subsequent dilutions were made in ethanol immediately prior to use. […] Subsequent dilutions were made in BHI medium (Brain heart infusion broth, Difco #0037-07-0) immediately prior to use.
# (§1) Blood agar base (BAB) was prepared containing 1.5% agar and autoclaved. 20 ml samples of autoclaved BAB were poured into 50 mL tubes and placed in a 56° C. water bath.
# The mixed media preparation was poured into a petri dished and allowed to solidify.
# (§2) Prior to inoculation of petri plates, bacteria or cultures were examined for morphology under a phase microscope to confirm motility and physical characteristics, e.g., spiral shaped. The organisms were washed off the plate into PBS (Phosphate buffered saline) (80.0 g NaCl, 2.0 g KCl, 2.4 g KH2PO4 11.5 g Na2HPO4 or 24.4 g Na2HPO4/2H2O per 1 liter deionized water, pH 7.2, sterilized by autoclaving) and diluted into BHI at a concentration of 10^8/ml (O.D. of 0.3 units diluted 1:30). Ten microliters of solution containing 10^6 organisms were spread onto a petri plate and grown under microaerophilic conditions for 3 days unless specified. Control organisms were grown under microaerophilic conditions.
# (§3) Inhibition of growth was determined by the amount of colonies present within the petri plate. The following factors were used for growth inhibition: ±=0-20 colonies, +=20-50 colonies, ++=50-200 colonies and +++=200+ colonies.
# [2] = tested on: H. pylori (urease negative) (Wild strain of ATCC 43504); assay: as above; format: cell-based, Helicobacter pylori; conditions: Table III
# Protocol: (§4) Monensin (Sigma Cat. No. M-5273) was dissolved in 100% absolute ethanol (AAPER Alcohol and Chemical Co.) at a concentration of 20 mg/ml. Subsequent dilutions were made in ethanol immediately prior to use. Nigericin (Sigma Cat. No. N-7143) was dissolved in DMSO at 2 mg/ml. Subsequent dilutions were made in BHI medium (Brain heart infusion broth, Difco #0037-07-0) immediately prior to use.
# as §1
# (§5) 100 μl of a drug (final concentration equivalent to 1:200 of original concentration) and 1.2 ml of sheep blood (Colorado Senun Company # CS-1112) (blood diluted in a 1:1 buffer providing a 3% concentration of blood per 20 ml medium sample) were added to 20 ml sample of media and mixed. The mixed media preparation was poured into a petri dished and allowed to solidify.
# as §2, §3
# [3] = tested on: H. pylori (urease positive) ATCC Number 51652; assay: as above; format: cell-based, Helicobacter pylori; conditions: Table VIII
# Protocol: as §4, §1, §5, §2, §3
# [4] = tested on: Staph ATCC 14775; assay: Blood agar plate growth inhibition, control organism; format: cell-based
# Protocol: as §4, §1, §5
# as §2, with “Control organisms were grown under microaerophilic conditions.” left out
# as §3
smiles,measurement,setting,value
"CC[C@@]1([C@@H]2O[C@@H]([C@H]3O[C@@](O)(CO)[C@H](C)C[C@@H]3C)C[C@@H]2C)CC[C@H]([C@]2(C)CC[C@]3(C[C@H](O)[C@@H](C)[C@@H]([C@@H](C)[C@@H](OC)[C@H](C)C(=O)O)O3)O2)O1 [Monensin, monensin]",MIC,"[1]; Helicobacter pylori, ATCC43504",0.39 µg/mL
same,growth (amount of colonies present within the petri plate),"[1]; Table I, final drug concentration 0.1 ng/ml",(+++) (+++=200+ colonies)
same,growth (amount of colonies present within the petri plate),"[1]; Table I, final drug concentration 1 ng/ml",(+) (+=20-50 colonies)
same,growth (amount of colonies present within the petri plate),"[1]; Table I, final drug concentration 10 ng/ml",(+) (+=20-50 colonies)
same,growth (amount of colonies present within the petri plate),"[1]; Table I, final drug concentration 100 ng/ml",No growth
same,growth (amount of colonies present within the petri plate),"[1]; Table I, final drug concentration 1 μg/ml",No growth
same,growth (amount of colonies present within the petri plate),"[1]; Table I, final drug concentration 10 μg/ml",No growth
same,growth (amount of colonies present within the petri plate),"[1]; Table II, urease positive, final drug concentration 1 ng/ml",(+++) (+++=200+ colonies)
same,growth (amount of colonies present within the petri plate),"[1]; Table II, urease positive, final drug concentration 100 ng/ml",(+++) (+++=200+ colonies)
same,growth (amount of colonies present within the petri plate),"[1]; Table II, urease positive, final drug concentration 10 μg/ml",No growth
same,growth (amount of colonies present within the petri plate),"[1]; Table II, urease positive, final drug concentration 0.1 nglml",(+++) (+++=200+ colonies)
same,growth (amount of colonies present within the petri plate),"[1]; Table IV, urease positive, final drug concentration 0.1 ng/ml",(+++) (+++=200+ colonies)
same,growth (amount of colonies present within the petri plate),"[1]; Table IV, urease positive, final drug concentration 1 ng/ml",(+++) (+++=200+ colonies)
same,growth (amount of colonies present within the petri plate),"[1]; Table IV, urease positive, final drug concentration 10 ng/ml",(+++) (+++=200+ colonies)
same,growth (amount of colonies present within the petri plate),"[1]; Table IV, urease positive, final drug concentration 100 ng/ml",(+++) (+++=200+ colonies)
same,growth (amount of colonies present within the petri plate),"[1]; Table IV, urease positive, final drug concentration 1 μg/ml",No growth
same,growth (amount of colonies present within the petri plate),"[1]; Table IV, urease positive, final drug concentration 10 μg/ml",No growth
same,growth (amount of colonies present within the petri plate),"[1]; Table V, in the presence of 10 mM urea, final drug concentration 0.1 ng/ml, Nigericin assay done in duplicate",(+++) (+++=200+ colonies)
same,growth (amount of colonies present within the petri plate),"[1]; Table V, in the presence of 10 mM urea, final drug concentration 1 ng/ml, Nigericin assay done in duplicate",(+++) (+++=200+ colonies)
same,growth (amount of colonies present within the petri plate),"[1]; Table V, in the presence of 10 mM urea, final drug concentration 10 ng/ml, Nigericin assay done in duplicate",(+++) (+++=200+ colonies)
same,growth (amount of colonies present within the petri plate),"[1]; Table V, in the presence of 10 mM urea, final drug concentration 100 ng/ml, Nigericin assay done in duplicate",(+++) (+++=200+ colonies)
same,growth (amount of colonies present within the petri plate),"[1]; Table V, in the presence of 10 mM urea, final drug concentration 1 μg/ml, Nigericin assay done in duplicate",No growth
same,growth (amount of colonies present within the petri plate),"[1]; Table V, in the presence of 10 mM urea, final drug concentration 10 μg/ml, Nigericin assay done in duplicate",No growth
same,growth (amount of colonies present within the petri plate),"[1]; Table VI, in the presence of 2.5 mM urea, final drug concentration 1 ng/ml",(+++) (+++=200+ colonies)
same,growth (amount of colonies present within the petri plate),"[1]; Table VI, in the presence of 2.5 mM urea, final drug concentration 10 ng/ml",(+++) (+++=200+ colonies)
same,growth (amount of colonies present within the petri plate),"[1]; Table VI, in the presence of 2.5 mM urea, final drug concentration 1 μg/ml",No growth
same,growth (amount of colonies present within the petri plate),"[1]; Tables IX-XIII, final drug concentration 0.098 μg/ml",(+++) (+++=200+ colonies)
same,growth (amount of colonies present within the petri plate),"[1]; Tables IX-XIII, final drug concentration 0.195 μg/ml",(++) (++=50-200 colonies)
same,growth (amount of colonies present within the petri plate),"[1]; Tables IX-XIII, final drug concentration 0.39 μg/ml",(±) (±=0-20 colonies)
same,growth (amount of colonies present within the petri plate),"[1]; Tables IX-XIII, final drug concentration 0.78 μg/ml",No growth
same,growth (amount of colonies present within the petri plate),"[1]; Tables IX-XIII, final drug concentration 6.25 μg/ml",No growth
same,growth (amount of colonies present within the petri plate),"[1]; Tables IX-XIII, final drug concentration 12.5 μg/ml",No growth
same,growth (amount of colonies present within the petri plate),"[1]; Tables IX-XIII, final drug concentration 25 μg/ml",No growth
same,growth (amount of colonies present within the petri plate),"[1]; Tables IX-XIII, final drug concentration 50 μg/ml",No growth
same,growth (amount of colonies present within the petri plate),"[1]; Tables IX-XIII, final drug concentration 100 μg/ml",No growth
same,growth (amount of colonies present within the petri plate),[2]; final drug concentration 0.1 ng/ml,(+++) (+++=200+ colonies)
same,growth (amount of colonies present within the petri plate),[2]; final drug concentration 1 ng/ml,(+++) (+++=200+ colonies)
same,growth (amount of colonies present within the petri plate),[2]; final drug concentration 10 ng/ml,(+++) (+++=200+ colonies)
same,growth (amount of colonies present within the petri plate),[2]; final drug concentration 100 ng/ml,(+++) (+++=200+ colonies)
same,growth (amount of colonies present within the petri plate),[2]; final drug concentration 1 μg/ml,No growth
same,growth (amount of colonies present within the petri plate),[2]; final drug concentration 10 μg/ml,No growth
same,growth (amount of colonies present within the petri plate),[3]; final drug concentration 0.098 μg/ml,No growth
same,growth (amount of colonies present within the petri plate),[3]; final drug concentration 0.195 μg/ml,No growth
same,growth (amount of colonies present within the petri plate),[3]; final drug concentration 0.39 μg/ml,No growth
same,growth (amount of colonies present within the petri plate),[3]; final drug concentration 0.78 μg/ml,No growth
same,growth (amount of colonies present within the petri plate),[3]; final drug concentration 1.56 μg/ml,No growth
same,growth (amount of colonies present within the petri plate),[3]; final drug concentration 3.125 μg/ml,No growth
same,growth (amount of colonies present within the petri plate),[3]; final drug concentration 6.25 μg/ml,No growth
same,growth (amount of colonies present within the petri plate),[3]; final drug concentration 12.5 μg/ml,No growth
same,growth (amount of colonies present within the petri plate),[3]; final drug concentration 25 μg/ml,No growth
same,growth (amount of colonies present within the petri plate),[3]; final drug concentration 50 μg/ml,No growth
same,growth (amount of colonies present within the petri plate),[3]; final drug concentration 100 μg/ml,No growth
same,growth (amount of colonies present within the petri plate),"[4]; Table XIV, Non-microaerophilic conditions, final drug concentration 0.1 ng/ml",(+++) (+++=200+ colonies)
same,growth (amount of colonies present within the petri plate),"[4]; Table XIV, Non-microaerophilic conditions, final drug concentration 1 ng/ml",(+++) (+++=200+ colonies)
same,growth (amount of colonies present within the petri plate),"[4]; Table XIV, Non-microaerophilic conditions, final drug concentration 10 ng/ml",(+++) (+++=200+ colonies)
same,growth (amount of colonies present within the petri plate),"[4]; Table XIV, Non-microaerophilic conditions, final drug concentration 100 ng/ml",(+++) (+++=200+ colonies)
same,growth (amount of colonies present within the petri plate),"[4]; Table XIV, Non-microaerophilic conditions, final drug concentration 1 μg/ml",(+++***) (+++=200+ colonies)
same,growth (amount of colonies present within the petri plate),"[4]; Table XIV, Non-microaerophilic conditions, final drug concentration 10 μg/ml",No growth
same,growth (amount of colonies present within the petri plate),"[4]; Table XVI, Non-aerophilic conditions, final drug concentration 0.098 μg/ml",(+++) (+++=200+ colonies)
same,growth (amount of colonies present within the petri plate),"[4]; Table XVI, Non-aerophilic conditions, final drug concentration 0.195 μg/ml",(+++) (+++=200+ colonies)
same,growth (amount of colonies present within the petri plate),"[4]; Table XVI, Non-aerophilic conditions, final drug concentration 0.39 μg/ml",(+++) (+++=200+ colonies)
same,growth (amount of colonies present within the petri plate),"[4]; Table XVI, Non-aerophilic conditions, final drug concentration 0.78 μg/ml",(++) (++=50-200 colonies)
same,growth (amount of colonies present within the petri plate),"[4]; Table XVI, Non-aerophilic conditions, final drug concentration 1.56 μg/ml",(+)^2 (+=20-50 colonies)
same,growth (amount of colonies present within the petri plate),"[4]; Table XVI, Non-aerophilic conditions, final drug concentration 3.125 μg/ml",(+)^2 (+=20-50 colonies)
same,growth (amount of colonies present within the petri plate),"[4]; Table XVI, Non-aerophilic conditions, final drug concentration 6.25 μg/ml",(+)^2 (+=20-50 colonies)
same,growth (amount of colonies present within the petri plate),"[4]; Table XVI, Non-aerophilic conditions, final drug concentration 12.5 μg/ml",(±)^1 (±=0-20 colonies)
same,growth (amount of colonies present within the petri plate),"[4]; Table XVI, Non-aerophilic conditions, final drug concentration 25 μg/ml",(±)^1 (±=0-20 colonies)
same,growth (amount of colonies present within the petri plate),"[4]; Table XVI, Non-aerophilic conditions, final drug concentration 50 μg/ml",No growth
same,growth (amount of colonies present within the petri plate),"[4]; Table XVI, Non-aerophilic conditions, final drug concentration 100 μg/ml",No growth
